Measurements taken from patent US5519028A, “Antiviral preparations” (priority 1992, dated 1996).

How the values were obtained:
in vivo = settings: for LD50 at 336 h / LD50 safety limits: rat, in vivo
Description: In accordance with the invention, flavopereirine is administered orally in the forms of capsules to patients infected with HIV at levels of 1-3 grams per day.

HIV-1 = HIV-1 cytopathogenic effect on MT4 cells (syncytia count); type: cell-based
Description: An evaluation of the antiviral effect of flavopereirine was also undertaken by studying the cytopathogenic effect of the HIV virus on MT4 cells, given that a formation of syncytia was observed 4-6 days after infection by HIV-1, followed by the death of the cells.
The flavopereirine was used in the form of an alcoholic solution (40 mg in 100 μl alcohol). Dilutions were made in RPMI medium at 10% of FCS, 1% of PSN and 1% of glutamine. The MT4 cells were left to pre-incubate for two hours at 37° C. with a successive dilution of flavopereirine containing 3×10^5 cells for 10 μl of flavopereirine solution. The solution was obtained by adding 100 μl of a 10^-4 dilution of HIV-1 virus, producing a syncytia formation in 4-6 days. After one hour of incubation at 37° C., the infected MT4 cells were washed three times with RPMI solution before being placed in culture (3×10^5 cells/ml in microplates with 24 wells) with the presence of different dilutions of flavopereirine. The syncytia count was taken each day in duplicate.

HIV-1 BRE1 (HIV-1Asym.) = assay: HIV P24 production in PBMC, viral inoculum pretreated, isolate BRE1; type: cell-based; settings: virus pretreated with 30 or 60 μg/ml
Description: (§1) To test the efficacy of flavopereirine on the infectious capability of HIV-1, two experiments were conducted. […] After 2 hours of incubation, the cells were rinsed twice and cultivated in 1 ml of RPMI 1640 containing 20 IU of IL-2 per ml (Boehringer […], Germany), 2 μg of Polybrene (hexadimethrine bromide) per ml (Sigma, St. Louis, Mo., USA) and 10^-7 IU of goat antiserum acting against human alpha interferon (Janssen, Beerse, Belgium) per ml. Half the culture was changed after 72 hours, and thereafter every 48 hours until the 30th day. […] The surface material of the culture was tested by an immuno-enzymatic (ELISA) assay for the production of antigen P24 (Abbott, Chicago, Ill., USA) and the optical density (OD) of the resulting color was converted into P24 concentration from the slope of a standard nomogram, as described by W. Lu and J. -M. Andrieu, Journal of Virology, 66(1): 334-340 (1992).

HIV-1 TIG2 (HIV-1AIDS) = assay: HIV P24 production, target PBMC pretreated, isolate TIG2; type: cell-based; settings: for Post-infection production of HIV P24: PBMC + 30 μg/ml 2 hours
Description: as §1

[1] = system: human PBMC stimulated with PHA (blasts); assay: Cytotoxicity in PHA-stimulated PBMC with or without human AB serum; type: cell-based
Description: The cytotoxicity of flavopereirine (compound H) in human PBMC stimulated with PHA was tested in the presence and absence of human AB serum as shown in Table IX.

TNF-α [2] = assay: TNF-α production by monocytes of normal donors; type: cell-based, human
Description: (§2) The effects of flavopereirine on the production of primary (IL-1β and TNF-α) and secondary (IL-6) cytokines by monocytes was also tested. The adhesive monocytes used were taken from the blood of two types of donors:
(§3) Normal donors--voluntary blood donors who attended the blood bank of the Pitie-Salpetriere Hospital, Paris, France; and
(§4) Product H was not used in these experiments at a rate of more than 20 μg/ml water, since above this rate, net toxicity could have been produced.

IL-1β [3] = assay: IL-1β production by monocytes of normal donors; type: cell-based, human
Description: as §2, §3, §4

interleukin-6 = assay: IL-6 production by monocytes of normal donors; type: cell-based, human
Description: as §2
Normal donors--voluntary blood donors who attended the blood bank of the Pitie-Salpetriere Hospital, Paris, France; and […]

TNF-α [4] = assay: TNF-α production by monocytes of HIV-positive donors; type: cell-based, human
Description: as §2
(§5) HIV-positive donors from medical consultations. These individuals were in the early stages of HIV infection and, at the moment of taking the blood, were not undergoing any treatment. The risk factors involved were intravenous drug abuse for six of the donors, sexual transmission for three and blood transfusion (in Zaire) for one patient. No correlation was found between the risk factors and the results of the experiments.
(§6) The response of the monocytes taken from the various HIV-positive donors was tested in terms of spontaneous response. The quantities of cells received were low (the donors were not affected by cytapheresy), and the experiments were therefore limited by the number of cells available.

IL-1β [5] = assay: IL-1β production by monocytes of HIV-positive donors; type: cell-based, human
Description: as §2, §5, §6

[6] = Cytotoxicity in human monocytes; type: cell-based; settings: human, monocytes
Description: as §4

human monocytes = assay: Cytotoxicity in human monocytes; type: cell-based; settings: four donors
Description: as §4

HIV = settings: human, in vivo
[7] = system: viruses of the Shope fibrome type; settings: intracutaneously 200-600 μg or 2.5-500 mg/day; cited from earlier work

Compound CCc1ccc2c3[nH]c4ccccc4c3cc[n+]2c1 [flavopereirine] has an LD50 at 336 h (in vivo; ip) of 2450 mg/kg, an LD50 safety limits (in vivo; ip) of 2350 to 2550 mg/kg and an LD50 at 336 h (in vivo; po) of 10400 mg/kg. The LD50 safety limits (in vivo; po) was 9630 to 11350 mg/kg, the “change in mortality rate” value (in vivo; subsequent 14 days, surviving animals) was “No change in mortality rate” and the syncytia (HIV-1; 100 ng/ml, d7, duplicate, Table I) was “++/T”. For the same compound, the syncytia (HIV-1; 1 μg/ml, d7, duplicate, Table I) was “++/T”, the syncytia (HIV-1; 30 μg/ml, d6, duplicate, Table III) was “a few were observed after 6 days” and the syncytia (HIV-1; 50 μg/ml, d7, duplicate, Table I) was “syncytia had not formed after 7 days culture”. For the same compound, the protection (HIV-1; 50 μg/ml, Table II summary) was “confirms the protection”, the syncytia (HIV-1; 60 μg/ml, d7, duplicate, Table III) was “no syncytia were formed” and the syncytia (HIV-1; from 10 μg/ml to 100 ng/ml, Table I summary) was “syncytia was observed, as it was in the HIV-1 control”. The “infection of target PBMC” value (HIV-1 BRE1 (HIV-1Asym.)) was “completely prevented the infection of target PBMC”, the “Post-infection production of HIV P24” value (HIV-1 TIG2 (HIV-1AIDS); d3) was 515 ± 103 pg/mL and the “Post-infection production of HIV P24” value (HIV-1 TIG2 (HIV-1AIDS); d5) was > 1500 pg/mL. For the same compound, the “inhibition of productive viral infections” value (HIV-1 TIG2 (HIV-1AIDS); target PBMC pretreated with 60 μg/ml only) was “complete inhibition of productive viral infections”, the “viability of blast PBMC” value ([1]; 200 μg/ml, p<0.001) was “diminished significantly” and the “significant reduction of viability of blast PBMC” value ([1]; 100, 60, 30 and 10 μg/ml) was “this was not the case”. The “direct activity on production of TNF-α” value (TNF-α [2]; donor 7, one dose only) was “Increase in the production of TNF-α”, the “indirect activity on production of TNF-α” value (TNF-α [2]; stimulated monocytes, heavy dosage only (20 βg/ml as printed), p<0.05) was “sharp reduction in production” and the “direct activity on production of IL-1β” value (IL-1β [3]; donor #10, 10 and 20 μg/ml) was “responded very well”. For the same compound, the “direct activity on production of IL-1β” value (IL-1β [3]; donors #3, 5 and 6, dose effect, marginal) was “Increase in the production of IL-1β”, the “indirect activity on production of IL-1β” value (IL-1β [3]; response to LPS or IFN-γ+LPS, p<0.05) was “no significant modification” and the “activity on cytokine production” value (interleukin-6; doses of less than 5 μg/ml, first two normal donors, cytokine not specified) was “inactive”. For the same compound, the “direct activity on production of interleukin-6” value (interleukin-6; normal donors) was “No modification in response was observed”, the “indirect activity on production of IL-6” value (interleukin-6; stimulated monocytes, dose-dependent, never total, P<0.05) was “sharp reduction in the production of IL-6” and the “indirect activity on production of TNF-α” value (TNF-α [4]; 20 μg/ml only, p<0.05) was “almost total reduction in the production of TNF-α”. The “direct activity on base production of TNF-α” value (TNF-α [4]; HIV-positive donors) was “No modification on the base production was observed”, the “direct activity on base production of IL-1β” value (IL-1β [5]; HIV-positive donors) was “No modification on the base production was observed” and the “indirect activity on production of interleukin-1” value (IL-1β [5]; three dosages, p<0.05) was “absence of any impact on the production of interleukin-1”. For the same compound, the cytotoxicity ([6]; 30 μg/ml, four donors) was > 40%, the MCC ([6]; healthy and asymptomatic HIV-positive donors, read-out: toxic dosage on human monocytes in vitro) was > 20 µg/mL and the cytotoxicity (human monocytes; 30, 50, 100 μg/ml) was “virtually total cytotoxicity”. For the same compound, the cytotoxicity (human monocytes; above 30 μg/ml) was 100 µg/mL, the CD2 (HIV) was “Increase” and the CD4 (HIV) was “Increase”. The “CD4+ cells” value (HIV) was “significant increase”, the CD8 (HIV) was “Increase” and the CD19 (HIV) was “Increase”. The “CD19+ cells” value (HIV) was “significant increase”, the “Karnofsky's index” value (HIV) was ~100% and the “blood or renal toxicity” value (HIV) was “Neither blood nor renal toxicity was observed”. For the same compound, the “degradation in CDC classification” value (HIV) was “No degradation in the CDC classification”, the “effect on viral infectional capacity of HIV” value (HIV) was “significant inhibitory effect on the viral infectional capacity of HIV” and the hemoglobin (HIV) was “Increase”. For the same compound, the infections (HIV) was “no infections were noticed”, the “microglobulin beta-2” value (HIV) was “Increase” and the “modification in ALAT or ASAT” value (HIV) was “nor was there any significant modification in ALAT or ASAT”. For the same compound, the “patients with negative decline in CD4+ reversed” value (HIV) was 18 out of 19, the “physical and professional activity” value (HIV) was “remained completely normal” and the red cells (HIV) was “Increase”. The side effects (HIV) was “Side effects were few, occurring only in the first three months”, the total lymphocyte mass (HIV) was “Increase” and the “toxic or side effects” value (HIV; po) was “devoid of toxic or side effects”. For the same compound, the “appearance and development of vital papules” value [7] was “prevents the appearance and development of vital papules”.
